From patent US20100174065A1, “COMPOUNDS” (GLAXO GROUP LIMITED, priority 2007, published 2010)
Counter-ions that a name gives are not always drawn.

Key:
human S1P1 receptor = target: T1, human S1P1 receptor (Homo sapiens, UniProt P21453); test: S1P1 GTPγS assay; type: biochemical; details: agonist activity, [35S]-GTPγS binding, human S1P1 rat hepatoma membranes
T1 construct: expressed in transfected cells; membranes
Method: (§1) For membrane preparations all steps were performed at 4° C. Rat hepatoma cells stably expressing the human S1P1 receptor or Rat Basophilic Leukaemia cells (RBL) stably expressing human S1P3 receptor were grown to 80% confluency before being harvested into 10 ml Phospho-Buffered Saline (PBS) and centrifuged at 1200 rpm for 5 minutes. After removal of the supernatant, the pellet was re-suspended and cells were homogenised within a glass Waring blender for 2 bursts of 15 secs in 200 mls of buffer (50 mM HEPES, 1 mM leupeptin, 25 μg/ml bacitracin, 1 mM EDTA, 1 mM PMSF, 2 μM pepstatin A). The blender was plunged into ice for 5 mins after the first burst and 10-40 mins after the final burst to allow foam to dissipate. The material was then spun at 500 g for 20 mins and the supernatant spun for 36 mins at 48,000 g. The pellet was resuspended in the same buffer as above but without PMSF and pepstatin A. The material was then forced through a 0.6 mm needle, made up to the required volume, (usually ×4 the volume of the original cell pellet), aliquoted and stored frozen at −80° C.
as §1, with “All” for “For membrane preparations all”, “Cells” for “Rat hepatoma cells stably expressing the human S1P1 receptor or Rat Basophilic Leukaemia cells (RBL) stably expressing human S1P3 receptor were grown to 80% confluency before being harvested into 10 ml Phospho-Buffered Saline (PBS) and centrifuged at 1200 rpm for 5 minutes. After removal of the supernatant, the pellet was re-suspended and cells”
Human S1P1 rat hepatoma membranes (1.5 μg/well) were adhered to a wheatgerm agglutinin (WGA)-coated scintillation proximity assay (SPA) beads (0.125 mg/well) in assay buffer (HEPES 20 mM, MgCl2 10 mM, NaCl 100 mM and pH adjusted to 7.4 using KOH 5M, GDP 10 μM FAC (final assay concentration) and saponin 90 μg/ml FAC was also added).
After 30 minutes pre-coupling on ice the bead and membrane suspension was dispensed into a white Greiner polypropylene LV384-well plate ([…]), containing 0.1 μl of the compound. 5 μl/well [^355]-GTPγS (0.5 nM final radioligand conc) made up in assay buffer was then added to agonist plates. The final assay cocktail (10.1 μl) was then centrifuged at 1000 rpm for 5 minutes then read immediately on a Viewlux reader.
All test compounds were dissolved in DMSO at a concentration of 10 mM and were prepared in 100% DMSO using a 1 in 4 dilution step to provide 11 point dose response curves. The dilutions were transferred to the assay plates ensuring that the DMSO concentration was constant across the plate for all assays.
All data was normalized to the mean of 16 high and 16 low control wells on each plate. A four parameter curve fit was then applied.
S1P1 expressing RH7777 membranes (1.5 μg/well) membranes (1.5 μg/well) were homogenised by passing through a 23G needle. These were then adhered to WGA-coated SPA beads (0.125 mg/well) in assay buffer (HEPES 20 mM, MgCl2 10 mM, NaCl 100 mM and pH adjusted to 7.4 using KOH 5M). GDP 10 μM FAC and saponin 90 μg/ml FAC were also added
After 30 minutes precoupling on ice, the bead and membrane suspension was dispensed into white Greiner polypropylene LV 384-well plates (5 μl/well), containing 0.1 μl of compound. 5 μl/well [^35S]-GTPγS (0.5 nM for S1P1 or 0.3 nM for S1P3 final radioligand concentration) made in assay buffer was then added to the plates. The final assay cocktail (10.1 μl) was then sealed, spun on a centrifuge, then read immediately on a Viewlux instrument.

circulating lymphocytes = details: animals and man; cited from earlier work
[1] = clinical studies, first 24 hours of treatment; cited from earlier work

T1 sequence (P21453 whole entry): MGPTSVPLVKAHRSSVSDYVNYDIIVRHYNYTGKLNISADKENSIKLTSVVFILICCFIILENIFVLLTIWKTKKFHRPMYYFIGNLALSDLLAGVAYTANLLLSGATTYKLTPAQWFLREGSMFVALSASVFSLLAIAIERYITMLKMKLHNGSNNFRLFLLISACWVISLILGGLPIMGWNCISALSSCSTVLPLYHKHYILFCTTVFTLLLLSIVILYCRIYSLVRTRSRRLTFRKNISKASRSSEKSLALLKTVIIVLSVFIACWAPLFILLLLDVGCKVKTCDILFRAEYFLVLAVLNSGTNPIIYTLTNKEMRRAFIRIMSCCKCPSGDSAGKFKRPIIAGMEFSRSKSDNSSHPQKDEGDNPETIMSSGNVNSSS

EC50 (human S1P1 receptor) [nM] | SMILES | effect on circulating lymphocytes (circulating lymphocytes) | bradycardia on treatment [1]
< 100 | CC(C)Oc1ccc(-c2nc(-c3cccc4c3OCCN(CCC(=O)O)C4)no2)cc1Cl [Example 47, 3-[9-(5-{3-Chloro-4-[(1-methylethyl)oxy]phenyl}-1,2,4-oxadiazol-3-yl)-2,3-dihydro-1,4-benzoxazepin-4(5H)-yl]propanoic acid] | – | –
< 100 | CC(C)Oc1ncc(-c2nc(-c3ccc4c(c3)CCN(CCCC(=O)O)CC4)no2)cc1Cl [Example 50, 4-[7-(5-{5-Chloro-6-[(1-methylethyl)oxy]-3-pyridinyl}-1,2,4-oxadiazol-3-yl)-1,2,4,5-tetrahydro-3H-3-benzazepin-3-yl]butanoic acid] | – | –
– | CCCCCCCCc1ccc(CCC(N)(CO)CO)cc1 [FTY720] | reduce circulating lymphocytes | results in bradycardia

SMILES | EC50 (human S1P1 receptor) [nM] | effect on circulating lymphocytes (circulating lymphocytes) | bradycardia on treatment [1]
CC(C)Oc1ncc(-c2nc(-c3ccc4c(c3)CCNCC4)no2)cc1C#N [Example 48, 2-[(1-Methylethyl)oxy]-5-[3-(2,3,4,5-tetrahydro-1H-3-benzazepin-7-yl)-1,2,4-oxadiazol-5-yl]-3-pyridinecarbonitrile formate] | < 100 | – | –
